Test results reported in US4937240A, “Thienotriazolodiazepine compounds and pharmaceutical uses thereof” (Yoshitomi Pharmaceutical Industries, Ltd., priority 1988, dated 1990).

Columns and labels:
PAF = conditions: literature; cited from earlier work
PAF-induced lethal shock [1] = assay: Effect on PAF-induced lethal shock in mice (p.o.); format: in vivo; conditions: Mus musculus, male ICR mice, 80 μg/kg PAF i.v. 1 hour after oral administration, observed 24 hours
Description: (§1) In order to determine PAF-antagonistic activity of the compounds of the present invention, the inhibitory effects of PAF-induced lethal shock in mice were investigated by oral administration and intravenous administration.
Experiment 1: Effect on PAF-induced lethal shock in mice (p.o.)
The experiment was carried out according to the method of Young et al. described in Prostaglandins, vol. 30, p. 545 (1985). Groups of 9 to 15 male ICR mice (Charles River) weighing 25-30 g were used. 80 μg/kg of PAF (Serdary Research Lab.) solution was intravenously administered in a lateral tail vein 1 hour after the oral administration of test compound (0.1 ml/10 g). […] Results were given as ED50 (mg/kg) in Table 1.

PAF-induced lethal shock [2] = assay: Effect on PAF-induced lethal shock in mice (i.v.); format: in vivo; conditions: Mus musculus, male ICR mice, 80 μg/kg PAF i.v. 1 hour after intravenous administration, observed 24 hours
Description: as §1
Experiment 2: Effect on PAF-induced lethal shock in mice (i.v.)
The experiment was carried out according to the method of Young et al. as described in Experiment 1. Groups of 8 to 15 male ICR mice (Charles River) weighing 25-30 g were used. 80 μg/kg of PAF (Serdary Research Lab.) solution was intravenously administered in a lateral a tail vein 1 hour after the intravenous administration of test compound ([…]). […] Results were given as ED50 (mg/kg) in Table 2.

Q: For `Cc1nnc2n1-c1sc(CCC(=O)N3CCOCC3)cc1C(c1ccccc1Cl)=NC2` [4-(2-chlorophenyl)-9-methyl-6H-thieno[3,2-f][1,2,4]triazolo[] [4-(2-chlorophenyl)-9-methyl-6H-thieno[3,2-f][1,2,4]triazolo[4,3-a][1,4]diazepine-2-propionic acid morpholide], which “antagonistic activity on PAF” value (PAF) is on record?
A: exhibit antagonistic activity on PAF

Q: For `Cc1nnc2n1-c1sc(CCC(=O)N3CCOCC3)cc1C(c1ccccc1Cl)=NC2C` (centres unmarked) [A, 3-[4-(2-chlorophenyl)-6,9-dimethyl-6H-thieno[3,2-f][1,2,4]triazolo[4,3-a][1,4]diazepin-2-yl]propionic acid morpholide], which ED50 (PAF-induced lethal shock [1]) is on record?
A: 0.065 mg/kg

Q: What about the ED50 (PAF-induced lethal shock [2]) of the same molecule?
A: 0.021 mg/kg

Q: With `Cc1nnc2n1-c1sc3c(c1C(c1ccccc1Cl)=NC2C)CC(C(=O)N1CCOCC1)C3` (centres unmarked) [B, 5-(2-chlorophenyl)-3,4-dihydro-7,10-dimethyl-3-morpholinocarbonyl-2H,7H-cyclopenta[4,5]thieno[3,2-f][1,2,4]triazolo[4,3-a][1,4]diazepine] as the molecule, how does the ED50 (PAF-induced lethal shock [1]) read?
A: 0.55 mg/kg

Q: With `Cc1nnc2n1-c1sc3c(c1C(c1ccccc1Cl)=NC2C)CC(CN1CCOCC1)C3` (centres unmarked) [C, 5-(2-chlorophenyl)-3,4-dihydro-7,10-dimethyl-3-morpholinomethyl-2H,7H-cyclopenta[4,5]thieno[3,2-f][1,2,4]triazolo[4,3-a][1,4]diazepine 1/2 hydrate] as the molecule, how does the ED50 (PAF-induced lethal shock [1]) read?
A: 0.2 mg/kg

Q: Which ED50 (PAF-induced lethal shock [1]) does the source give for `Cc1nnc2n1-c1sc(CCC(=O)N3CCN(CC(C)C)CC3)cc1C(c1ccccc1Cl)=NC2C` (centres unmarked) [D, 3-[4-(2-chlorophenyl)-6,9-dimethyl-6H-thieno[3,2-f][1,2,4]triazolo[4,3-a][1,4]diazepin-2-yl]propionic acid 4-isobutyl-1-piperazide] here?
A: 0.3 mg/kg

Q: For `CCCN(CCC)C(=O)CCc1cc2c(s1)-n1c(C)nnc1C(C)N=C2c1ccccc1Cl` (centres unmarked) [E, 3-[4-(2-chlorophenyl)-6,9-dimethyl-6H-thieno[3,2-f][1,2,4]triazolo[4,3-a][1,4]diazepin-2-yl]propionic acid N,N-dipropylamide], which ED50 (PAF-induced lethal shock [1]) is on record?
A: 0.14 mg/kg

Q: For `Cc1nnc2n1-c1sc3c(c1C(c1ccccc1Cl)=NC2)CC(CN1CCOCC1)C3` (centres unmarked) [STY 2108, 5-(2-chlorophenyl)-3,4-dihydro-10-methyl-3-morpholinomethyl-2H,7H-cyclopenta[4,5]thieno[3,2-f][1,2,4]triazolo[4,3-a][1,4]diazepine], which “antagonistic activity on PAF” value (PAF) is on record?
A: exhibit more potent PAF-antagonistic activity

Q: With `Cc1nnc2n1-c1sc(CCC(=O)N3CCOCC3)cc1C(c1ccccc1Cl)=NC2` [WEB 2086, 3-[4-(2-chlorophenyl)-9-methyl-6H-thieno[3,2-f][1,2,4]triazolo[4,3-a][1,4]diazepin-2-yl]propionic acid morpholide, reference compound] as the molecule, how does the ED50 (PAF-induced lethal shock [1]) read?
A: 1.6 mg/kg

Q: What about the ED50 (PAF-induced lethal shock [2]) of the same molecule?
A: 0.125 mg/kg

Q: And the “antagonistic activity on PAF” value (PAF)?
A: exhibit more potent PAF-antagonistic activity
